Assay results reported in patent US12459939B2 (SHANGHAI RINGENE BIOPHARMA CO., LTD., priority 2019, dated 2025).
Read-outs that look alike come from different tables or passages of the source.

Assays:
CYP2C19 = molecular target: T1, CYP2C19 (Homo sapiens, UniProt P33261); experiment: Direct inhibition test (DI test) in human liver microsomes, CYP2C19; format: in vitro ADME; settings: read-out: inhibitory IC50 on CYP 2C19
T1 construct: human liver microsomes (final concentration was 0.2 mg/mL); from tissue; host or cells: human liver microsomes
T1 sequence (P33261 whole entry): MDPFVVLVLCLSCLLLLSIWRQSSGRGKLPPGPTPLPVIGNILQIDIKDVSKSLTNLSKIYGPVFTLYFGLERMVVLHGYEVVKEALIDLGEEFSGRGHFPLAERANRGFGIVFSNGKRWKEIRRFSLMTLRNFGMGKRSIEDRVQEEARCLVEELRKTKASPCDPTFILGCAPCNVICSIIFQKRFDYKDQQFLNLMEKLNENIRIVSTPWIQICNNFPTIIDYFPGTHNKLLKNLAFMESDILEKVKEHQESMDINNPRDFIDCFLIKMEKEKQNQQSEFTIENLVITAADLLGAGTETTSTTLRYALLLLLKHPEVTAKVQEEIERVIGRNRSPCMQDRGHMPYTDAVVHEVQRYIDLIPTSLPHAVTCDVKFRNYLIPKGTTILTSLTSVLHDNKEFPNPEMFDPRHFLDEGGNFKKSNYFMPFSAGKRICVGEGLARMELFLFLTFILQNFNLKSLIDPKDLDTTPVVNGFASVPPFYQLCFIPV
Procedure: (2) Direct inhibition test (DI test): 1004 of human liver microsomes (final concentration was 0.2 mg/mL) system was subjected to inhibition incubation directly, the system contains NADPH (final concentration was 1 mM), 10 μM compound, positive inhibitor cocktail (ketoconazole 10 μM, quinidine 10 μM, sulfapyrazole 100 μM, a-naphthoflavone 10 μM, tranylcypromine […]), negative control (0.1% DMSO BPS) and mixed probe substrate (midazolam 1004, testosterone 10004, dextromethorphan 10 μM, diclofenac 20 μM, phenacetin 100 μM, mephenytoin 100 μM), the reaction was terminated after incubation for 20 min. The relative enzyme activity was calculated by measuring the relative production of metabolites.

IEC6 = experiment: Proliferation inhibition of IEC6 cells; format: cell-based; settings: Rattus norvegicus, IEC-6; IEC6 cell line; read-out: proliferation inhibitory activity IC50
Procedure: (§1) The proliferation inhibitory activity of some of the embodiment compounds against different cell lines such as LNCAP (+R1881), SKM-1, 22RV1, DU145, MOLM13, MDA-PCA-2b, KASUMI 1, THP-1, KG-1, IEC6, H1299, etc., was tested using similar methods in test embodiment 2 and in the literature.

BRD4-BD1 = molecular target: T2, BRD4-BD1 (Homo sapiens, UniProt O60885); experiment: BRD4 AlphaScreen determination (BD1); format: binding
T2 construct: purchased ReactionBiologyCorp; (RBC)
Procedure: (1) 1× Assay buffer was prepared according to the kit requirements of ReactionBiologyCorp. (RBC). (2) Compound concentration gradient preparation: the test compounds were tested at final concentrations starting at 10 μM, with 10 concentrations at 3-fold dilution and single well test was set for each concentration. The positive control compound(+)-JQ-1 was tested at final concentrations starting at 1 μM, with 10 concentrations at 3-fold dilution, and duplicated well test was set for each concentration. The solution was gradient diluted to the corresponding 1000-fold final concentration in a 384-well Source plate, and then 20 nL of the solution was transferred to the 384-well reaction plate with Echo550 to be measured. 20 nL of 100% DMSO was transferred to the Max well, and the highest concentration of the positive compounds were transferred to the Min wells. […] (6) 5 μL of 4× peptide solution was added to each well of the reaction plate, centrifuged at 1000 rpm for 1 min. (7) 10 μL of the assay solution was added, centrifuged at 1000 rpm for 60 seconds, the solution was mixed with gentle shaking, and incubated at room temperature for 60 minutes. (8) Reading with EnVision. (9) The IC50 values of the compounds for protein binding inhibition was obtained by fitting the dose-effect curve with the analytical software GraphPad Prism 5. (See Table 1 for specific values)

[1] = tested on: MV 4-11 transplanted tumor; experiment: Growth inhibition of MV 4-11 transplanted tumor in nude mice; format: in vivo; settings: for inhibitory rate (growth of transplanted tumor): dose of 15 mpk, oral, daily; for tolerability in experimental animals / tumor inhibitory effect: higher doses, 50 mg/kg-100 mg/kg
Procedure: The tumor tissue in vigorous growth stage was cut into about 1.5 mm^3 and inoculated subcutaneously in the right armpit of nude mice under sterile conditions. The diameter of subcutaneous transplanted tumor in nude mice was measured with vernier caliper, and the animals were randomly divided into groups when the average tumor volume was about 130 mm^3. […] During the whole experiment, the diameter of the transplanted tumor was measured twice a week, and the weight of mice was weighed at the same time. The calculation formula of tumor volume (TV) was: TV=½×a×b^2, wherein a and b represent the length and width respectively. The relative tumor volume (RTV) was calculated according to the measurement results, and the calculation formula was: RTV=VT/v0. Wherein VO is the tumor volume measured during the administration in cage (i.e., d0), and Vt is the tumor volume at each measurement.

[2] = tested on: LNCAP, SKM-1, MOLM13, KASUMI 1, THP-1, KG-1; experiment: Proliferation inhibition of different cell lines: most sensitive lines; format: cell-based; settings: some cell lines such as LNCAP, read-out: proliferation inhibitory activity IC50
Procedure: as §1

[3] = In vivo pharmacokinetics in mice; settings: male, Balb c, mouse, plasma, po, 5 mg/kg; for AUC / Cmax / half-life: gavage
Procedure: Six male SPF-grade SD rats or Balb c mice (Shanghai B&K laboratory animals) were divided into two groups and the test compounds were configured into suitable solutions or suspensions; one group was administered intravenously and one group was administered orally. Blood was collected by jugular vein puncture, and each sample was collected about 0.2 mL/time point, heparin sodium was used for anticoagulation, the blood collection time points were as follows: before administration and 5, 15 and 30 minutes, 1, 2, 4, 6, 8 and 24 h after administration, the blood sample was collected and placed on ice, centrifuged to separate the plasma (centrifugation conditions: 8000 rpm, 6 minutes, 2-8° C.), and the collected plasma was stored at −80° C. before analysis. The plasma samples were analyzed by LC-MS/MS.
According to the blood drug concentration data of the drug, the pharmacokinetic calculation software WinNonlin5.2 non-compartmental model was used to calculate the pharmacokinetic parameters AUC0-t, AUC0-∞, MRT0-∞, Cmax, Tmax, T1/2 and Vd and other parameters and their mean and standard deviation. In addition, the bioavailability (F) was calculated by the following formula.
For samples with a concentration lower than the lower limit of quantification, when calculating the pharmacokinetic parameters, the samples sampled before reaching Cmax should be calculated as zero, and samples sampled after reaching Cmax should be calculated as unquantifiable (BLQ).

H1299 = experiment: Proliferation inhibition of H1299 cells; format: cell-based; settings: Homo sapiens, NCI-H1299; H1299 cell line; read-out: proliferation inhibitory activity IC50
Procedure: as §1

[4] = In vivo pharmacokinetics in beagle dogs; settings: dog, plasma, po, gavage, 10 mg/kg
[5] = tested on: most AML cell lines and prostate cancer cell lines; experiment: Proliferation inhibition of different cell lines: AML and prostate cancer lines; format: cell-based; settings: read-out: proliferation inhibitory activity IC50
Procedure: as §1

| Structure (SMILES) | IC50 (CYP2C19) | IC50 (IEC6) | IC50 (BRD4-BD1) | inhibitory rate (growth of transplanted tumor) [1] | tolerability in experimental animals [1] | tumor inhibitory effect [1] | IC50 [2] | bioavailability [3] | AUC [3] | Cmax [3] | half-life [3] | IC50 (H1299) | AUC [4] | Cmax [4] | half-life [4] | IC50 [5] | IC50 (BRD4-BD1; AlphaScreen, protein binding inhibition, read-out: BRD4-BD1 IC50) |
| --- | --- | --- | --- | --- | --- | --- | --- | --- | --- | --- | --- | --- | --- | --- | --- | --- | --- |
| CCNC(=O)c1cc2c(=O)n(C)cc(-c3cc(C(C)(C)O)ccc3Oc3c(C)cc(F)cc3C)c2[nH]1 [compound 1, reference compound] | > 15000 nM | > 1000 nM | 40 nM | 82% | tolerate it well | obvious | < 100 nM | > 40% | > 5 µM·h | > 1500 nM | > 3 h | > 1000 nM | > 15 µM·h | 2000 nM | > 2 h | < 1000 nM | – |
| Cc1cc(F)cc(C)c1Oc1ccc(C(C)(C)O)cc1-c1cn(C)c(=O)c2cc(C(=O)NC3CC(F)(F)C3)[nH]c12 [Embodiment 18, N-(3,3-difluorocyclobutyl)-7-(2-(4-fluoro-2,6-dimethylphenoxy)-5-(2-hydroxyprop-2-yl)phenyl)-5-methyl-4-oxo-4,5-dihydro-1H-pyrrolo[3,2-c] pyridine-2-amide] | > 15000 nM | > 1000 nM | – | 82% | tolerate it well | obvious | < 100 nM | > 40% | > 5 µM·h | > 1500 nM | > 3 h | > 1000 nM | > 15 µM·h | 2000 nM | > 2 h | < 1000 nM | 117 nM |
